Laboratory results from US11968999B2, “Use and composition of buffer formulation with multiple pH values and protein digestion enhancer” (ECO-GEO BIO-TECHNOLOGY COMPANY LIMITED, priority 2018, dated 2024).

Key:
trypsin = trypsin (Homo sapiens, UniProt P07477); test: Proteolysis of casein by trypsin with ascorbic acid in citric acid buffer (OPA fluorescence, TAAE); type: biochemical
Method: (§1) The four test tubes were respectively incubated at 37° C. for 10 minutes, 1 hour, 2 hours and 3 hours, an equal amount of 10% trichloroacetic acid (TCA) solution was added into each test tube and mixed with the control solution uniformly, and the test tubes were held at room temperature for 10 minutes and then centrifuged at 3000 rpm for 10 minutes. 20 μL of the supernatants taken from the above-mentioned test tubes at four time points were put into four new test tubes. 2.4 mL o-phthalaldehyde (OPA) reagent was added into each new test tube and held for 2 minutes, and the fluorescence intensity was measured at EX. 340 nm and EM. 455 nm by a fluorescence spectrometer. […] The four test tubes were respectively incubated at 37° C. for 10 minutes, 1 hour, 2 hours and 3 hours, an equal amount of 10% TCA solution was added into each test tube and mixed with the experimental solution uniformly, and the test tubes were held at room temperature for 10 minutes and then centrifuged at 3000 rpm for 10 minutes. 20 μL of the supernatants taken from the above-mentioned test tubes at four time points were put into four new test tubes. 2.4 mL OPA reagent was added into each new test tube and held for 2 minutes, and the fluorescence intensity was measured at EX. 340 nm and EM. 455 nm by the fluorescence spectrometer. […] The four test tubes were respectively incubated at 37° C. for 10 minutes, 1 hour, 2 hours and 3 hours, an equal amount of 10% TCA solution was added into each test tube and mixed with the experimental solution uniformly, and the test tubes were held at room temperature for 10 minutes and then centrifuged at 3000 rpm for 10 minutes. 20 μL of the supernatants taken from the above-mentioned test tubes at four time points were put into four new test tubes. 2.4 mL OPA reagent was added into each new test tube and held for 2 minutes, and the fluorescence intensity was measured at EX. 340 nm and EM. 455 nm by the fluorescence spectrometer. […] The four test tubes were respectively incubated at 37° C. for 10 minutes, 1 hour, 2 hours and 3 hours, an equal amount of 10% TCA solution was added into each test tube and mixed with the experimental solution uniformly, and the test tubes were held at room temperature for 10 minutes and then centrifuged at 3000 rpm for 10 minutes. 20 μL of the supernatants taken from the above-mentioned test tubes at four time points were put into four new test tubes. 2.4 mL OPA reagent was added into each new test tube and held for 2 minutes, and the fluorescence intensity was measured at EX. 340 nm and EM. 455 nm by the fluorescence spectrometer. The obtained fluorescence intensity was calculated as the amount of tyrosine according to the tyrosine calibration line established in advance at the same pH value, and represented as TAAE (μg/mL). 2. […] The four test tubes were respectively incubated at 37° C. for 10 minutes, 1 hour, 2 hours and 3 hours, an equal amount of 10% TCA solution was added into each test tube and mixed with the control solution uniformly, and the test tubes were held at room temperature for 10 minutes and then centrifuged at 3000 rpm for 10 minutes. 20 μL of the supernatants taken from the above-mentioned test tubes at four time points were put into four new test tubes. 2.4 mL OPA reagent was added into each new test tube and held for 2 minutes, and the fluorescence intensity was measured at EX. 340 nm and EM. 455 nm by the fluorescence spectrometer. […] The four test tubes were respectively incubated at 37° C. for 10 minutes, 1 hour, 2 hours and 3 hours, an equal amount of 10% TCA solution was added into each test tube and mixed with the experimental solution uniformly, and the test tubes were held at room temperature for 10 minutes and then centrifuged at 3000 rpm for 10 minutes. 20 μL of the supernatants taken from the above-mentioned test tubes at four time points were put into four new test tubes. […]

pepsin = pepsin (Homo sapiens, UniProt P0DJD8); test: Proteolysis of casein by pepsin with ascorbic acid in citric acid buffer (OPA fluorescence, TAAE); type: biochemical
Method: 1. […]
as §1

[1] = environment where the pH is greater than 4; cited from earlier work
[2] = pH 5.0, 60 ppm ascorbic acid, 0.1 hr
[3] = pH 5.0, 60 ppm ascorbic acid, 1 hr
[4] = pH 5.0, 60 ppm ascorbic acid, 2 hr
[5] = pH 5.0, 60 ppm ascorbic acid, 3 hr
[6] = pH 5.0, 120 ppm ascorbic acid, 0.1 hr
[7] = pH 5.0, 120 ppm ascorbic acid, 1 hr
[8] = pH 5.0, 120 ppm ascorbic acid, 2 hr
[9] = pH 5.0, 120 ppm ascorbic acid, 3 hr
[10] = pH 5.0, 240 ppm ascorbic acid, 0.1 hr
[11] = pH 5.0, 240 ppm ascorbic acid, 1 hr
[12] = pH 5.0, 240 ppm ascorbic acid, 2 hr
[13] = pH 5.0, 240 ppm ascorbic acid, 3 hr
[14] = pH 6.0, 60 ppm ascorbic acid, 0.1 hr
[15] = pH 6.0, 60 ppm ascorbic acid, 1 hr
[16] = pH 6.0, 60 ppm ascorbic acid, 2 hr
[17] = pH 6.0, 60 ppm ascorbic acid, 3 hr
[18] = pH 6.0, 120 ppm ascorbic acid, 0.1 hr
[19] = pH 6.0, 120 ppm ascorbic acid, 1 hr
[20] = pH 6.0, 120 ppm ascorbic acid, 2 hr
[21] = pH 6.0, 120 ppm ascorbic acid, 3 hr
[22] = pH 6.0, 240 ppm ascorbic acid, 0.1 hr
[23] = pH 6.0, 240 ppm ascorbic acid, 1 hr
[24] = pH 6.0, 240 ppm ascorbic acid, 2 hr
[25] = pH 6.0, 240 ppm ascorbic acid, 3 hr
[26] = pH 6.0, groups containing ascorbic acid

Sequence of pepsin (P0DJD8 63-388): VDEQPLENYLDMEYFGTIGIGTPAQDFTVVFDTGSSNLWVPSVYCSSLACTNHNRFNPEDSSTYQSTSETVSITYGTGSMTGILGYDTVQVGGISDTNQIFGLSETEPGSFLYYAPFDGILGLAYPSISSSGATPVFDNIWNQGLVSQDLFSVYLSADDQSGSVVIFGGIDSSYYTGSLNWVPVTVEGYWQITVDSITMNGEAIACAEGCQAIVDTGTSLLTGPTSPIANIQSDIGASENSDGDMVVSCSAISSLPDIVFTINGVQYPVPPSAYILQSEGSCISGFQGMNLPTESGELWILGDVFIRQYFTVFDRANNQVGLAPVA

TAAE (trypsin; [2]): 11.5 µg/mL
TAAE (trypsin; [3]): 30.4 µg/mL
TAAE (trypsin; [4]): 37.8 µg/mL
TAAE (trypsin; [5]): 45.2 µg/mL
TAAE (trypsin; [6]): 15.3 µg/mL
TAAE (trypsin; [7]): 38.0 µg/mL
TAAE (trypsin; [8]): 39.0 µg/mL
TAAE (trypsin; [9]): 49.1 µg/mL
TAAE (trypsin; [10]): 38.9 µg/mL
TAAE (trypsin; [11]): 37.5 µg/mL
TAAE (trypsin; [12]): 87.9 µg/mL
TAAE (trypsin; [13]): 89.3 µg/mL
TAAE (trypsin; [14]): 57.7 µg/mL
TAAE (trypsin; [15]): 86.6 µg/mL
TAAE (trypsin; [16]): 90.4 µg/mL
TAAE (trypsin; [17]): 93.7 µg/mL
TAAE (trypsin; [18]): 54.2 µg/mL
TAAE (trypsin; [19]): 85.6 µg/mL
TAAE (trypsin; [20]): 91.3 µg/mL
TAAE (trypsin; [21]): 94.8 µg/mL
TAAE (trypsin; [22]): 57.9 µg/mL
TAAE (trypsin; [23]): 102.4 µg/mL
TAAE (trypsin; [24]): 103.1 µg/mL
TAAE (trypsin; [25]): 91.5 µg/mL
TAAE (trypsin; pH 7.5, 60 ppm ascorbic acid, 0.1 hr): 82.6 µg/mL
TAAE (trypsin; pH 7.5, 60 ppm ascorbic acid, 1 hr): 107.0 µg/mL
TAAE (trypsin; pH 7.5, 60 ppm ascorbic acid, 2 hr): 103.8 µg/mL
TAAE (trypsin; pH 7.5, 60 ppm ascorbic acid, 3 hr): 105.1 µg/mL
TAAE (trypsin; pH 7.5, 120 ppm ascorbic acid, 0.1 hr): 78.4 µg/mL
TAAE (trypsin; pH 7.5, 120 ppm ascorbic acid, 1 hr): 116.3 µg/mL
TAAE (trypsin; pH 7.5, 120 ppm ascorbic acid, 2 hr): 107.3 µg/mL
TAAE (trypsin; pH 7.5, 120 ppm ascorbic acid, 3 hr): 99.0 µg/mL
TAAE (trypsin; pH 7.5, 240 ppm ascorbic acid, 0.1 hr): 60.4 µg/mL
TAAE (trypsin; pH 7.5, 240 ppm ascorbic acid, 1 hr): 91.1 µg/mL
TAAE (trypsin; pH 7.5, 240 ppm ascorbic acid, 2 hr): 100.5 µg/mL
TAAE (trypsin; pH 7.5, 240 ppm ascorbic acid, 3 hr): 86.8 µg/mL
total amino acid equivalent (TAAE) (pepsin; pH 2.0, 60 ppm ascorbic acid, 0.1 hr): 3.8 µg/mL
total amino acid equivalent (TAAE) (pepsin; pH 2.0, 60 ppm ascorbic acid, 1 hr): 44.9 µg/mL
total amino acid equivalent (TAAE) (pepsin; pH 2.0, 60 ppm ascorbic acid, 2 hr): 70.9 µg/mL
total amino acid equivalent (TAAE) (pepsin; pH 2.0, 60 ppm ascorbic acid, 3 hr): 44.9 µg/mL
total amino acid equivalent (TAAE) (pepsin; pH 2.0, 120 ppm ascorbic acid, 0.1 hr): 6.7 µg/mL
total amino acid equivalent (TAAE) (pepsin; pH 2.0, 120 ppm ascorbic acid, 1 hr): 45.1 µg/mL
total amino acid equivalent (TAAE) (pepsin; pH 2.0, 120 ppm ascorbic acid, 2 hr): 73.0 µg/mL
total amino acid equivalent (TAAE) (pepsin; pH 2.0, 120 ppm ascorbic acid, 3 hr): 58.7 µg/mL
total amino acid equivalent (TAAE) (pepsin; pH 2.0, 240 ppm ascorbic acid, 0.1 hr): 5.6 µg/mL
total amino acid equivalent (TAAE) (pepsin; pH 2.0, 240 ppm ascorbic acid, 1 hr): 54.6 µg/mL
total amino acid equivalent (TAAE) (pepsin; pH 2.0, 240 ppm ascorbic acid, 2 hr): 76.4 µg/mL
total amino acid equivalent (TAAE) (pepsin; pH 2.0, 240 ppm ascorbic acid, 3 hr): 38.2 µg/mL
TAAE (pepsin; [2]): 6.4 µg/mL
TAAE (pepsin; [3]): 32.7 µg/mL
TAAE (pepsin; [4]): 58.6 µg/mL
TAAE (pepsin; [5]): 42.0 µg/mL
TAAE (pepsin; [6]): 19.5 µg/mL
TAAE (pepsin; [7]): 22.1 µg/mL
TAAE (pepsin; [8]): 55.4 µg/mL
TAAE (pepsin; [9]): 38.1 µg/mL
TAAE (pepsin; [10]): 49.5 µg/mL
TAAE (pepsin; [11]): 81.1 µg/mL
TAAE (pepsin; [12]): 92.2 µg/mL
TAAE (pepsin; [13]): 72.6 µg/mL
TAAE (pepsin; [14]): 4.2 µg/mL
TAAE (pepsin; [15]): 47.9 µg/mL
TAAE (pepsin; [16]): 40.4 µg/mL
TAAE (pepsin; [17]): 27.5 µg/mL
TAAE (pepsin; [18]): -6.7 µg/mL
TAAE (pepsin; [19]): 43.9 µg/mL
TAAE (pepsin; [20]): 24.4 µg/mL
TAAE (pepsin; [21]): 24.2 µg/mL
TAAE (pepsin; [22]): 1.8 µg/mL
TAAE (pepsin; [23]): 31.5 µg/mL
TAAE (pepsin; [24]): 57.4 µg/mL
TAAE (pepsin; [25]): 34.5 µg/mL
SMILES: O=C1O[C@H]([C@@H](O)CO)C(O)=C1O [ascorbic acid]
proteolytic efficiency of trypsin (in words) (trypsin; pH 5.0, 240 ppm ascorbic acid): improves the proteolytic efficiency of the trypsin significantly
effect on proteolysis efficiency of trypsin (in words) (trypsin; pH 5, pH 6 and pH 7.5, control group at pH 7.5 as comparison indicator): significant effect on the proteolysis efficiency of the trypsin
proteolytic efficiency of trypsin versus control group (in words) (trypsin; [26]): better proteolytic efficiencies than the control group
hydrolysis efficiency of trypsin versus control group (in words) (trypsin; pH 7.5, groups containing ascorbic acid): better hydrolysis efficiencies than the control group
hydrolysis efficiency of pepsin versus control group (in words) (pepsin; pH 2.0, groups containing ascorbic acid): better hydrolysis efficiencies than the control group
proteolytic efficiency of pepsin (in words) (pepsin; pH 5.0, 240 ppm ascorbic acid): improves the proteolytic efficiency of the pepsin significantly
effect on proteolysis efficiency of pepsin (in words) (pepsin; pH 5, pH 6 and pH 2, control group at pH 2 as comparison indicator): significant effect on the proteolysis efficiency of the pepsin
proteolytic efficiency of pepsin versus control group (in words) (pepsin; [26]): better proteolytic efficiencies than the control group
stability (degradation) of ascorbic acid (in words) [1]: easily degraded
